Where two headings read alike, the source gives them in different places.
Assays:
human γ-globulin = test: Binding to human γ-globulin (activity remaining in aqueous portion after ether extraction; TLC); conditions: TLC of aqueous portion, radioactivity with a polar band
Procedure: (§1) Samples of bovine albumin (45 mg/ml, 10 ml) and human γ-globulin (6.7 mg/ml. 10 ml) were prepared in phosphate buffer and 0.15 NaCl solution (PBS). A 10 ml sample of PBS was used as control. [^125 I]-IPM (10 μCi) in 100 λ DMSO was added to each sample and incubated for 30 min at 37° C. The samples were repeatedly extracted with ethyl ether. The unbound activity as [^125 I]-IPM was extracted with ethyl ether. The activity remaining in the aqueous portion was considered to be bound with the proteins.

[1] = as above; conditions: gamma-globulin in pbs; human γ-globulin 6.7 mg/ml in PBS, 30 min at 37° C., after ether extraction; read-out: activity remaining in the aqueous portion (bound with protein), γ-globulin (converted)
Procedure: as §1

[2] = Tissue distribution of radioactivity after intravenous administration in rats; type: in vivo, female Fischer 344 rats (printed "femal Fischer 344 rats"); conditions: for tissue uptake at 5 min / tissue uptake at 0.5 h / tissue uptake at 1 h: rat, iv; for tissue uptake at 5 min: 5 min after i.v. injection; for tissue uptake at 0.5 h: 30 min after i.v. injection; for tissue uptake at 1 h: 60 min after i.v. injection; for binding with the blood, tissue distribution (in words) / thyroid uptake / thyroid levels of radioactivity (in words): rats; for thyroid uptake / thyroid levels of radioactivity (in words): indicative of in vivo stability of radiolabel toward deiodination
Procedure: 4-[^125 I]iodoaniline (7.4 mCi sp. act. 700 mCi/mmol) prepared following structure described in Step 1 of Example 1 was coupled with maleic anhydride (9.5 mg) in glacial acetic acid (0.15 ml) at room temperature. The radioiodinated compound, [^125 I]3 isolated by silica gel column chromatography was refluxed with acetic anhydride
The distribution of radiactivity in tissues of femal Fischer 344 rats
(§2) after intravenous administration of [^125 I]4.^a
^a Animals had body weight range of 121-139 gm. Each animal received
3.7 ^o Ci of [^125 I]4 by tail vein injection.
The distribution of radioactivity in tissues of femal Fischer 344 rats
as §2
(75mg) and anhydrous (fused) sodium acetate (12 mg) in benzene (1.0 ml) for 3 h. The product, [^125 I]4 (3.99 mCi, 56 percent radiochemical yield based on [^125 I]3), was isolated by silica gel column chromatography. The radioactive compound [^125 I]4 was identical with an unlabeled sample of 4.

bovine albumin = test: Binding to bovine albumin (activity remaining in aqueous portion after ether extraction; TLC); conditions: TLC of aqueous portion, radioactivity with a polar band
Procedure: as §1

[3] = as above; conditions: bovine albumin 45 mg/ml in PBS, 30 min at 37° C., after ether extraction; read-out: activity remaining in the aqueous portion (bound with protein), albumin (converted)
Procedure: as §1

albumin = test: Preliminary studies of binding with albumin
platelet proteins = test: Preliminary studies of binding with platelet proteins
IgG = test: Preliminary studies of binding with IgG
red blood cells = test: Blood fractionation (plasma, red and white blood cells) studies; type: in vivo, rat; conditions: rats injected with [^125 I]4
Excerpt: Blood fractionation (plasma, red and white blood cells) studies indicated 88.9% of the blood activity to be associated with red blood cells.

[4] = blood, Table 1, blood, read-out: Mean percent injected dose/gm, Blood
[5] = blood, Table 2, blood, read-out: Mean percent injected dose/gm, Blood
[6] = heart, Table 1, heart, read-out: Mean percent injected dose/gm, Heart
[7] = heart, Table 2, heart, read-out: Mean percent injected dose/gm, Heart
[8] = kidneys, Table 1, kidneys, read-out: Mean percent injected dose/gm, Kidneys
[9] = kidneys, Table 2, kidneys, read-out: Mean percent injected dose/gm, Kidneys
[10] = liver, Table 1, liver, read-out: Mean percent injected dose/gm, Liver
[11] = liver, Table 2, liver, read-out: Mean percent injected dose/gm, Liver
[12] = lungs, Table 1, lungs, read-out: Mean percent injected dose/gm, Lungs
[13] = lungs, Table 2, lungs, read-out: Mean percent injected dose/gm, Lungs
[14] = thyroid, Table 1, thyroid, read-out: Mean percent injected dose/gm, Thyroid
[15] = thyroid, Table 2, thyroid, read-out: Mean percent injected dose/gm, Thyroid

For `O=C1C=CC(=O)N1c1ccc([125I])cc1` [[^125 I]4, N-(p-[^125 I]iodophenyl)maleimide], the “binding with γ-globulin by TLC (in words)” value (human γ-globulin) was “significant binding”, the fraction unbound at 0.5 h [1] was about 0.6 and the tissue uptake at 5 min [2, 4] was 8.84 %ID/g. For the same molecule, the tissue uptake at 0.5 h [2, 4] was 8.44 %ID/g, the tissue uptake at 1 h [2, 4] was 7.56 %ID/g and the tissue uptake at 5 min [2, 5] was 57.6 %ID/g. For the same molecule, the tissue uptake at 0.5 h [2, 5] was 54.1 %ID/g, the tissue uptake at 1 h [2, 5] was 48.6 %ID/g and the tissue uptake at 5 min [2, 6] was 1.45 %ID/g. The tissue uptake at 0.5 h [2, 6] was 1.81 %ID/g, the tissue uptake at 1 h [2, 6] was 1.74 %ID/g and the tissue uptake at 5 min [2, 7] was 0.61 %ID/g. The tissue uptake at 0.5 h [2, 7] was 0.79 %ID/g, the tissue uptake at 1 h [2, 7] was 0.74 %ID/g and the tissue uptake at 5 min [2, 8] was 2.15 %ID/g. It also gave a tissue uptake at 0.5 h [2, 8] of 2.12 %ID/g, a tissue uptake at 1 h [2, 8] of 2.07 %ID/g and a tissue uptake at 5 min [2, 9] of 2.17 %ID/g. For the same molecule, the tissue uptake at 0.5 h [2, 9] was 2.18 %ID/g, the tissue uptake at 1 h [2, 9] was 2.21 %ID/g and the tissue uptake at 5 min [2, 10] was 1.9 %ID/g. It also gave a tissue uptake at 0.5 h [2, 10] of 1.73 %ID/g, a tissue uptake at 1 h [2, 10] of 1.5 %ID/g and a tissue uptake at 5 min [2, 11] of 10.2 %ID/g. The tissue uptake at 0.5 h [2, 11] was 7.85 %ID/g, the tissue uptake at 1 h [2, 11] was 7.05 %ID/g and the tissue uptake at 5 min [2, 12] was 2.04 %ID/g. The tissue uptake at 0.5 h [2, 12] was 2.52 %ID/g, the tissue uptake at 1 h [2, 12] was 2.31 %ID/g and the tissue uptake at 5 min [2, 13] was 1.76 %ID/g. It also gave a tissue uptake at 0.5 h [2, 13] of 1.89 %ID/g, a tissue uptake at 1 h [2, 13] of 1.74 %ID/g and a tissue uptake at 5 min [2, 14] of 13.7 %ID/g. The tissue uptake at 0.5 h [2, 14] was 21.7 %ID/g, the tissue uptake at 1 h [2, 14] was 20.5 %ID/g and the tissue uptake at 5 min [2, 15] was 0.13 %ID/g. For the same molecule, the tissue uptake at 0.5 h [2, 15] was 0.2 %ID/g, the tissue uptake at 1 h [2, 15] was 0.19 %ID/g and the “binding with the blood, tissue distribution (in words)” value (from here on “binding with the blood”) [2] was “high levels of radioactivity were associated with the blood”. The “thyroid uptake / thyroid levels of radioactivity (in words)” value ([2]; listed as IPM) was “consistently low”, the “thyroid uptake / thyroid levels of radioactivity (in words)” value ([2]; listed as maleimide agent) was “low” and the “binding with the blood” value ([2]; listed as IPM) was “preferential binding”. For the same molecule, the “binding with the blood” value ([2]; listed as maleimide agent) was “preferential binding with the blood”, the “binding with albumin by TLC (in words)” value (bovine albumin) was “significant binding” and the fraction unbound at 0.5 h [3] was about 0.4. For the same molecule, the “binding with albumin (in words)” value (albumin) was “appears to bind”, the “binding with platelet proteins (in words)” value (platelet proteins) was “appears to bind” and the “binding with IgG (in words)” value (IgG) was “appears to bind”. For the same molecule, the “blood activity associated with red blood cells” value (red blood cells) was 88.9%.

From US4735792A, “Radioiodinated maleimides and use as agents for radiolabeling antibodies” (The United States of America as represented by the United …, priority 1987, dated 1988)
